Results from patent US8258097B2, “Amino acid derivatives” (Proximagen Ltd., priority 2007, dated 2012).

System: 6-OHDA-lesioned rats
Assay: Assessment of rotational (locomotor) activity in 6-OHDA-lesioned rats
Type: in vivo, Male Wistar rats
Details: p.o., with benserazide 10 mg/kg, 63.4 μmole/kg
Procedure: • Animals Male Wistar rats, 200-225 g on arrival, Harlan Ltd. • Housing Animals were housed in groups of 4 on a 12-h light-dark cycle with an environment of 50% humidity and temperature of 21±2° C. in accordance with Animals (Scientific Procedures) Act […] Home Office regulations. Rats had access to food and water ad libitum. • Licence All animals used in this study were treated in accordance with the UK 1986 Animals (Scientific Procedures Act). Procedure • Surgery Male Wistar rats were anaesthetized in an induction chamber using isofluorane (1-2% in 95% O2, 5% CO2 carrier gas), placed in a Kopf stereotaxic frame and anaesthesia maintained with 0.5-1.0% isofluorane. An incision was made in the scalp and a 0.8-mm-diameter hole made in the skull at coordinates AP: −2.6 mm, L: +2.0 mm (all co-ordinated measured from bregma). The neurotoxin 6-hydroxydopamine (6-OHDA) (8 μg free base in 4 μL of 0.9% saline containing 0.05% ascorbic acid) was injected into the left median forebrain bundle at a constant rate over 4 min (1 μl/min) using a 10-μL Hamilton syringe lowered to −8 mm below the dura. The needle remained in place for a further 4 min before being removed, and the wound cleaned and sutured. Carprofen (5 mg/kg subcutaneously) was administered for pain relief and a rehydration treatment of 5% glucose in 0.9% saline (up to 5 ml ip) was given prior to recovery from the anaesthetic. Behavioural Assessment Confirmation of the Lesion • At least 2 weeks following surgery, animals were examined for rotational behaviour (see below) in response to the administration of apomorphine hydrochloride (0.5 mg/kg s.c. in 0.9% saline containing 0.05% ascorbic acid) to evaluate the extent of the lesion. […]. Animals were placed in rotometers (Med Associates) for up to 30 min to measure basal activity. They were then treated with benserazide (10 mg/kg) concomitantly with test compound or L-DOPA (63.4 μmole/kg ip or po). Rotation behaviour was assessed for up to 6 hours after test drug/L-DOPA administration. Animals were typically treated with a series of compounds for comparative purposes. Each treatment was administered at least 1 day apart. Data Analysis • The number of rotations measured per 10 minutes over the 6 hour period was determined. Animals were considered active if they turned >10 turns per 10 minutes.

For `CNC(=O)Oc1cc(C[C@H](NC(=O)[C@@H](N)Cc2ccc(O)c(O)c2)C(=O)OC)ccc1O.Cl` [Example 8, (S)-2-(3,4-Dihydroxy-phenyl)-1-[(S)-2-(4-hydroxy-3-methylcarbamoyloxy-phenyl)-1-methoxycarbonyl-ethylcarbamoyl]-ethyl-ammonium chloride], the “AUC (locomotor activity)” value was 928 (±161) rotations per 220 min, the “locomotor activity compared to baseline” value was “increased locomotor activity compared to baseline” and the peak locomotor activity was 92 (±20) rotations per 10 min. For the same molecule, the “duration of locomotor activity” value (active = >10 turns per 10 minutes) was 142 (±7) min.
